In BigSolDB 2.1:

COc1ccc(P(c2ccc(OC)cc2)c2ccc(OC)cc2)cc1
Details | solubility (mole fraction)
in 2-butanone, 293.16 K | 0.00621
in 2-butanone, 298.17 K | 0.00684
in 2-butanone, 303.18 K | 0.00749
in 2-butanone, 308.14 K | 0.00815
in 2-butanone, 313.16 K | 0.00884
in 2-butanone, 318.17 K | 0.00962
in 2-butanone, 323.16 K | 0.0103
in 2-butanone, 328.17 K | 0.0113
in 2-butanone, 333.16 K | 0.0121
in 2-ethoxyethanol, 293.16 K | 0.00522
in 2-ethoxyethanol, 298.17 K | 0.00693
in 2-ethoxyethanol, 303.18 K | 0.00862
in 2-ethoxyethanol, 308.14 K | 0.0108
in 2-ethoxyethanol, 313.16 K | 0.0136
in 2-ethoxyethanol, 318.17 K | 0.0168
in 2-ethoxyethanol, 323.16 K | 0.0209
in 2-ethoxyethanol, 328.17 K | 0.0255
in 2-ethoxyethanol, 333.16 K | 0.0311
in 2-ethoxyethanol, 338.17 K | 0.0377
in 2-ethoxyethanol, 343.15 K | 0.0454
in benzene, 293.16 K | 0.00029
in benzene, 298.17 K | 0.00037
in benzene, 303.18 K | 0.00045
in benzene, 308.14 K | 0.00054
in benzene, 313.16 K | 0.00068
in benzene, 318.17 K | 0.00082
in benzene, 323.16 K | 0.00099
in cyclohexane, 299.15 K | 0.00054
in cyclohexane, 304.05 K | 0.00082
in cyclohexane, 308.85 K | 0.00107
in cyclohexane, 313.95 K | 0.00151
in cyclohexane, 318.45 K | 0.00231
in cyclohexane, 323.65 K | 0.00326
in cyclohexane, 328.45 K | 0.00436
in cyclohexane, 332.85 K | 0.00596
in cyclohexane, 337.65 K | 0.00848
in diethyl ether, 293.16 K | 0.00587
in diethyl ether, 296.17 K | 0.00721
in diethyl ether, 299.18 K | 0.00889
in diethyl ether, 301.16 K | 0.0101
in diethyl ether, 303.15 K | 0.0114
in ethanol, 293.16 K | 0.00084
in ethanol, 298.17 K | 0.00102
in ethanol, 303.18 K | 0.00121
in ethanol, 308.14 K | 0.00142
in ethanol, 313.16 K | 0.00173
in ethanol, 318.17 K | 0.00202
in ethanol, 323.16 K | 0.00241
in methanol, 293.16 K | 0.00022
in methanol, 298.17 K | 0.00029
in methanol, 303.18 K | 0.0004
in methanol, 308.14 K | 0.00051
in methanol, 313.16 K | 0.00066
in methanol, 318.17 K | 0.00083
in methanol, 323.16 K | 0.00107
in toluene, 293.16 K | 0.00035
in toluene, 298.17 K | 0.00042
in toluene, 303.18 K | 0.00051
in toluene, 308.14 K | 0.00061
in toluene, 313.16 K | 0.00075
in toluene, 318.17 K | 0.00089
in toluene, 323.16 K | 0.00105
in toluene, 328.17 K | 0.00123
in toluene, 333.15 K | 0.00145

O=P(O)(CO)c1ccccc1
Details | solubility (mole fraction)
in 2-butanone, 288.15 K | 0.0013
in 2-butanone, 293.16 K | 0.0015
in 2-butanone, 298.17 K | 0.0017
in 2-butanone, 303.18 K | 0.0019
in 2-butanone, 308.14 K | 0.0022
in 2-butanone, 313.16 K | 0.0024
in 2-butanone, 318.17 K | 0.0027
in 2-butanone, 323.16 K | 0.0029
in 2-butanone, 328.17 K | 0.0033
in 2-butanone, 333.16 K | 0.0037
in 2-ethoxyethanol, 293.16 K | 0.0461
in 2-ethoxyethanol, 298.17 K | 0.0512
in 2-ethoxyethanol, 303.18 K | 0.0571
in 2-ethoxyethanol, 308.14 K | 0.0638
in 2-ethoxyethanol, 313.16 K | 0.0709
in 2-ethoxyethanol, 318.17 K | 0.0777
in 2-ethoxyethanol, 323.16 K | 0.0849
in 2-ethoxyethanol, 328.16 K | 0.0937
in 2-ethoxyethanol, 333.15 K | 0.102
in acetone, 288.15 K | 0.0013
in acetone, 293.16 K | 0.0015
in acetone, 298.17 K | 0.0017
in acetone, 303.18 K | 0.002
in acetone, 308.14 K | 0.0023
in acetone, 313.16 K | 0.0026
in acetone, 318.17 K | 0.003
in acetone, 323.16 K | 0.0035
in benzene, 293.16 K | 0.0009
in benzene, 298.17 K | 0.0011
in benzene, 303.18 K | 0.0013
in benzene, 308.14 K | 0.0016
in benzene, 313.16 K | 0.0019
in benzene, 318.17 K | 0.0022
in benzene, 323.16 K | 0.0027
in benzene, 328.16 K | 0.0032
in benzene, 333.15 K | 0.0037
in cyclohexane, 288.15 K | 0.001
in cyclohexane, 293.16 K | 0.0011
in cyclohexane, 298.17 K | 0.0012
in cyclohexane, 303.18 K | 0.0013
in cyclohexane, 308.14 K | 0.0014
in cyclohexane, 313.16 K | 0.0015
in cyclohexane, 318.17 K | 0.0016
in cyclohexane, 323.16 K | 0.0017
in cyclohexane, 328.17 K | 0.0018
in cyclohexane, 333.16 K | 0.0019
in dichloromethane, 293.16 K | 0.00061
in dichloromethane, 296.17 K | 0.00079
in dichloromethane, 301.13 K | 0.00119
in dichloromethane, 303.14 K | 0.00143
in dichloromethane, 305.15 K | 0.00169
in diethyl ether, 293.16 K | 0.00113
in diethyl ether, 296.17 K | 0.00138
in diethyl ether, 301.13 K | 0.00188
in diethyl ether, 303.14 K | 0.00212
in diethyl ether, 305.15 K | 0.00238
in toluene, 288.15 K | 0.001
in toluene, 293.16 K | 0.0011
in toluene, 298.17 K | 0.0013
in toluene, 303.18 K | 0.0015
in toluene, 308.14 K | 0.0018
in toluene, 313.16 K | 0.002
in toluene, 318.17 K | 0.0023
in toluene, 323.16 K | 0.0026
in toluene, 328.17 K | 0.0029
in toluene, 333.16 K | 0.0033
in water, 307.45 K | 0.0099
in water, 317.46 K | 0.0206
in water, 327.57 K | 0.0424
in water, 338.15 K | 0.0966
in water, 342.45 K | 0.117
in water, 346.58 K | 0.166
in water, 352.8 K | 0.247
in water, 357.11 K | 0.312
